Data on one compound can be found in patent US20100159030A1, “METHODS FOR DETECTING AND MODULATING THE SENSITIVITY OF TUMOR CELLS TO ANTI-MITOTIC AGENTS AND FOR MODULATING TURMORGENICITY” (NewSouth Innovations Pty Limited, priority 2007, published 2010).

Each structure is given as a SMILES string.

Assay type in all cases: cell-based, Human
In experiment [1] the test system is Calu-6 cells. Put plainly: Immunofluorescent staining of microtubules (α-tubulin) after drug treatment. Conditions: 1 h, vs control. The protocol:
Transfected Calu-6 cells were grown on sterile chamber slides until 60-70% confluent. Cells were then treated with paclitaxel and vincristine for 1 h at 10 nM. Cells were fixed in methanol and processed for staining as previously described (Don et al. (2004) supra) with minor modifications. Fixed cells were stained with α-tubulin (1:400 in 5% FCS/PBS, Sigma) for 30 min followed by Cy2 anti-mouse fluorescent tagged antibody (1:1,000 in 5% FCS/PBS, GE Healthcare). Slides were mounted on a coverslip using DAPI II Counterstain (Vysis Inc., Downers Grove, Ill.). Slides were viewed using a Zeiss Axioplan 2 Immunofluorescence Microscope (Mannheim, Germany) with Image-Pro® Plus 4.1 software (Media Cybernetics, L.P., Silver Spring, Md.).
To assess the effects of βIII downregulation on microtubule organization, immunofluorescence staining was performed on transfected Calu-6 cells as follows. Briefly, siRNA transfected cells were plated in glass chamber slides and allowed to reach 70% confluence. Cells were then treated with 10 nM of paclitaxel or vincristine for 1 hour. Drug was then removed by washing cells with PBS and blocked in 10% FCS/PBS. For dual staining, cells were first labelled with an antibody to class III β-tubulin which was exposed to cells incubated at 37° C. for 30 minutes in a humidified chamber. Following washes in 0.1% Tween 20/PBS at room temperature, the slides were incubated with Cy3 anti-mouse fluorescent-tagged antibody (GE Healthcare) for 40 minutes in a humidified chamber in the dark at room temperature. Following incubation, the slides were washed again in 0.1% Tween 20/PBS. This was then followed by staining with α-tubulin and Cy2 anti-mouse fluorescent tagged antibody (GE Healthcare). Slides were mounted on a coverslip using DAPI II Counterstain (Vysis Inc., Downers Grove, Ill.). Immunofluorescence microscopy was performed and images were captured using a Sensicam Charged Coupled Device camera (PCO Imaging, Kelheim, Bavaria, Germany) and the Image-Pro® Plus 4.1 software (Media Cybernetics, L.P., Silver Spring, Md.).

Experiment [2] concerns H460 cells. Put plainly: Apoptosis induction, Annexin V-FITC flow cytometry. The settings on record: 48 h. The protocol:
Annexin V-FITC staining followed by flow cytometry analysis was performed to address whether the increase in the sub-G1 population following exposure to tubulin-binding agents in the βIII-tubulin siRNA treated cells was related to an increase in apoptosis induction. Apoptosis induction was determined by transfecting H460 cells with siRNA for 72 h and harvesting (adherent and suspension) cells 48 h after drug treatment, as previously described in Pasquier et al., Mol Cancer Ther 2004; 3:1301-10. Briefly, 1×10^5 cells were incubated with Annexin V-FITC and propidium iodide for 15 min in the dark (Becton-Dickinson), immediately followed by flow cytometry using a FACSCalibur (Becton-Dickinson). Cytogram analysis was performed using CellQuest® software.

Experiment [3] relates to H460 cells. Put plainly: Cell cycle analysis by flow cytometry (propidium iodide). The settings on record: 24 h. As for the experimental part: The distribution of DNA content in βII or βIVb tubulin siRNA-transfected H460 cells was determined by flow cytometry. After 72 h transfection, transfected cells were exposed to vincristine at 5 nM or 40 nM concentrations for 24 h. On the day of analysis, both adherent and floating cells were harvested, washed with PBS and then stained with a solution containing 0.4% Triton® X-100 (Sigma), 50 μg/ml propidium iodide (Sigma), and 2 μg/ml DNase-free RNase (Roche, Indianapolis, Ind.) in the dark for 15 min at 37′C. DNA content was measured by a FACSCalibur flow cytometer (Becton Dickinson, San Diego, Calif.). The flow rate was <200 nuclei per second and 10,000 cells from each sample were analysed. Measurements were performed under the same instrumental settings. The CellQuest® program was used to quantitate the distribution of cells in each cell cycle phase: sub-G1 (apoptotic cells), G1, S and G2/M.
To determine whether βIII-tubulin silencing affects the cell cycle profiles, cell cycle analysis using flow cytometry was performed. Cell cycle analysis was determined by transfecting H460 cells with siRNA for 72 h and harvesting (adherent and suspension) cells 24 h after drug treatment. DNA content was stained for 15 min at 37° C. with a solution containing 0.4% Triton® X-100 (Sigma-Aldrich), 50 μg/ml propidium iodide (Sigma-Aldrich), and 2 μg/ml DNAse-free RNAse (Roche, Indianapolis, Ind.). The cells were then analyzed for cell cycle perturbation using a FACSCalibur (Becton-Dickinson, Franklin Lakes, N.J.). The CellQuest® program was used to quantitate the distribution of cells in each cell cycle phase: sub-G1(apoptotic cells), G1, S and G2/M.

Experiment [4] deals with Calu-6 cells. Put plainly: Drug-treated clonogenic assay on siRNA-transfected cells. As for the experimental part:
Cells were transfected for 24 h and approximately 600 cells (for Calu-6) or 150 cells (for H460) were seeded into each well of a 6-well plate and allowed to attach for 4-6 h. The cell lines used in this study were not subject to prior drug selection, and are likely to represent intrinsic drug resistance observed in lung carcinoma.
Cells were then treated with increasing concentrations of various anti-mitotic drugs. Following a 3-day incubation at 37° C., the drug-containing medium was removed and replaced with fresh complete medium. Medium was changed at 3-4 day intervals for 7 to 10 days until visible colonies formed. […] Surviving colonies were simultaneously fixed and stained with 0.5% crystal violet in methanol, rinsed with water to remove excess stain and air-dried overnight.
The colonies in each well were manually counted, and the results were presented as surviving fraction according to the formula: surviving fraction was calculated as follows: colony number/(number of cells seeded×plating efficiency), where plating efficiency is equivalent to the colony number divided by the number of cells seeded in the drug-free medium. Dose-response curves were plotted for each drug-cell line combination and inhibitory dose (ID50) values were extrapolated from this curve using GraphPad Prism program (GraphPad Software, version 4, San Diego, Calif.). ID50 was defined as the concentration of the drug required to reduce the number of colonies in drug-treated wells to 50% of that of the relevant untreated control wells. The ID50 values were the means of at least four independent experiments.
To quantitate any change in drug sensitivity, drug treated clonogenic assays were performed. Twenty-four hours after siRNA transfection, cells were harvested and plated into 6-well plates for 6 h, prior to the addition of various drugs as indicated in the figure legends. After 72 h incubation, the drug-containing media was removed and replaced with complete growth media. Medium was changed every 3 days for 7 to 10 days until visible colonies formed. Colonies were simultaneously fixed and stained with 0.5% crystal violet in methanol, and manually counted. Individual stained colonies in each well were counted and the surviving fraction was calculated as follows: colony number/(number of cells seeded×plating efficiency), where plating efficiency equals the colony number divided by the number of cells seeded in drug-free media.

On to `CC(=O)O[C@H]1C(=O)[C@@]2(C)[C@H]([C@H](OC(=O)c3ccccc3)[C@]3(O)C[C@H](OC(=O)[C@H](O)[C@@H](NC(=O)c4ccccc4)c4ccccc4)C(C)=C1C3(C)C)[C@]1(OC(C)=O)CO[C@@H]1C[C@@H]2O` [Paclitaxel, paclitaxel], for which the microtubule morphology entry is “did not appear significantly different” in experiment [1] (βII siRNA-transfected Calu-6, 10 nM drug) and “extensive disruption of the microtubule cytoskeleton” in experiment [1] (βIII siRNA-transfected Calu-6, 10 nM drug). Moreover, the results for the “concentration from which apoptosis is induced” value in experiment [2] (control siRNA treated cells) and in experiment [2] (βIII-tubulin siRNA treated cells) were at least 5 nM and at least 1 nM, respectively. Moreover, the “percentage of apoptotic cells” value in experiment [2] (βIII-tubulin siRNA vs control siRNA cells, paclitaxel 1, 2, 5 nM, cisplatin 0.4 or 1 μM) is “significantly higher”. Also, the cell cycle profile entry in experiment [3] (control siRNA cells, 40 nM) is “marked G2/M block”; in experiment [3] (βIII-tubulin siRNA cells vs control siRNA, 5 nM) it was “higher sub-G1 (apoptotic cells) content”; in experiment [3] (βIII-tubulin siRNA cells, 40 nM), “marked increase in the sub-G1 population”. Moreover, the results for the “change in drug sensitivity (clonogenic survival)” value in experiment [4] (class II β-tubulin siRNA knockdown vs controls) and in experiment [4] (class IVb β-tubulin siRNA knockdown vs controls) were “did not significantly potentiate the cytotoxicity” and “no effect on sensitivity”, respectively.
